Experimental data from PMC7215373, “Design, Synthesis, and Anticancer Evaluation of Novel Indole Derivatives of Ursolic Acid as Potential Topoisomerase II Inhibitors” (International Journal of Molecular Sciences, 2020).
Like-named read-outs stand apart in the source and are kept apart here.

Legend:
DNA topoisomerase I = biological target: T1, DNA topoisomerase I (Bos taurus, UniProt F1MN93); assay: Topoisomerase I relaxation assay (supercoiled pBR322); type: biochemical; details: for inhibition at 20 µM: 20 μM compound, read-out: Topo I Inhibition (%) 20 μM; for inhibition at 100 µM: 100 μM compound, read-out: Topo I Inhibition (%) 100 μM
T1 construct: purchased TaKaRa, Kyoto, Japan
T1 sequence (F1MN93 1-767): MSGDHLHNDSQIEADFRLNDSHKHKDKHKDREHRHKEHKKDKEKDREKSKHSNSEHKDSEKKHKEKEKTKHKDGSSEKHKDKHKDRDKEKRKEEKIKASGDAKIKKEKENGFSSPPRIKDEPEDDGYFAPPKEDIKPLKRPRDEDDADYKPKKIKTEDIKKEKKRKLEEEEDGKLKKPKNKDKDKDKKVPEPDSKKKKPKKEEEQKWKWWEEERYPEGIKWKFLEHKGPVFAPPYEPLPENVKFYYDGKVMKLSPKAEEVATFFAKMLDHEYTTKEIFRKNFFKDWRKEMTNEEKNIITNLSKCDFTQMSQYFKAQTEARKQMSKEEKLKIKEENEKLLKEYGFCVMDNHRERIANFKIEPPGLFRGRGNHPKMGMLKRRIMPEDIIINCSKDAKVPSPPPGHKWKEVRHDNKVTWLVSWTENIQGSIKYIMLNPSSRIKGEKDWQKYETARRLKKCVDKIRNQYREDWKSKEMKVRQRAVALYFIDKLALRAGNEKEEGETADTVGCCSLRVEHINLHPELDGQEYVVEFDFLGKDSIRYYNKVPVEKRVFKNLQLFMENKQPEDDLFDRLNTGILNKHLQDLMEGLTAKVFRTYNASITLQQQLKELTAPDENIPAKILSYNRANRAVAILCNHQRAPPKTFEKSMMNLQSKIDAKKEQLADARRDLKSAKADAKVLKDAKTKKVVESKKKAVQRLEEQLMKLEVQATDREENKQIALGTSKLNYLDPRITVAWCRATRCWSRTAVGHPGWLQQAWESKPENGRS
Protocol: The effect of the tested compounds on Topo I and II activities were evaluated by Topo I/II relaxation assays. The reaction products, relaxed DNA could be distinguished from supercoiled DNA by gel electrophoresis and visualized using gel imaging system. The activity of DNA topoisomerase I (TaKaRa, Kyoto, Japan) was determined by measuring the relaxation of supercoiled DNA pBR322 [32]. Camptothecin was used as a positive control. The reaction mixture was prepared according to the manufacture's protocol, and incubated at 37 °C for 30 min. The reactions were terminated by adding dye solution containing 1% SDS, 0.02% bromophenol blue and 50% glycerol. The mixtures were applied to 1% agarose gel and subjected to electrophoresis for 1 h, in 1× TAE buffer (40 mM Tris-acetate, 1 mM EDTA). Gels were stained for 30 min in 60 mL 1× TAE buffer with ethidium bromide (0.5 μg/mL). DNA bands were visualized by transillumination with UV light and then photographed by a Gel Doc XR+ System (BIO-RAD, Hercules, CA, USA).

HepG2 cells [1] = tested on: HepG2 cells; parameters: method as in PMID 25537271; details: earlier in vitro cytotoxic assay; read-out: IC50 against HepG2; cited from earlier work
HepG2 cells [2] = assay: MTT cytotoxicity assay, HepG2; type: cell-based, human; details: 48 h exposure
Protocol: (§1) The in vitro cytotoxic activities of synthesized compounds were evaluated against two human hepatocarcinoma cell lines (SMMC-7721 and HepG2) and the human normal hepatocyte cell line (LO2) via MTT assay. All tested compounds were dissolved in DMSO and the stock solutions were diluted by DMEM medium before treatment of the cultured cells. […] Cell lines were obtained from American Tissue Culture Collection (ATCC). Briefly, different tumor cells were grown in DMEM medium supplemented with 10% fetal bovine serum, penicillin (100 U/mL), and streptomycin (50 μg/mL). Cells were harvested at log phase of growth and seeded in 96-well plates (100 μL/well at a density of 2 × 10^5 cells/mL). After 24 h incubation at 37 °C and 5% CO2 to allow cell attachment, cultures were exposed to various concentrations of the isolated compounds for 48 h. Finally, MTT solution (2.5 mg/mL in PBS) was added (40 μL/well). Plates were further incubated for 4 h at 37 °C, and the formazan crystals formed were dissolved by adding 150 μL/well of DMSO. Absorption at 570 nm was measured with an ELISA plate reader. […] Doxorubicin, camptothecin, and etoposide (VP-16) were co-assayed as positive controls.

Human Topoisomerase IIα = biological target: T2, Human Topoisomerase IIα (Homo sapiens, UniProt P11388); assay: Topoisomerase II relaxation assay (supercoiled pBR322); type: biochemical; details: for inhibition at 20 µM: 20 μM compound, read-out: Topo II Inhibition (%) 20 μM; for inhibition at 100 µM: 100 μM compound, read-out: Topo II Inhibition (%) 100 μM
T2 construct: purchased USB, Affymetrix, Waltham, MA, USA
Protocol: The effect of the tested compounds on Topo I and II activities were evaluated by Topo I/II relaxation assays. The reaction products, relaxed DNA could be distinguished from supercoiled DNA by gel electrophoresis and visualized using gel imaging system. Human Topoisomerase IIα activity was detected by measuring the relaxation of supercoiled pBR322 plasmid DNA [22]. […] For inhibition studies, the compounds were pre-incubated with human Topo IIα and DNA for 15 min. Compounds were used at the appropriate concentrations by dissolving in 2% (v/v) DMSO. DMSO didn't show detrimental effect on the enzyme activity at concentration up to 2% (v/v). Reaction mixture was incubated at 37 °C for 30 min and stopped by the addition of 7 mM EDTA. Reaction product was mixed with DNA loading dye and electrophoresed on 1% TAE-Agarose. The gel was stained with ethidium bromide (0.5 μg/mL) for 30 min, destained twice in 1× TAE buffer, and then visualized using a BIO-RAD Gel Doc XR+ System. Etoposide (VP-16) was co-assayed as a positive control.

SMMC-7721 cells [3] = tested on: SMMC-7721 cells; parameters: method as in PMID 25537271; details: earlier in vitro cytotoxic assay; read-out: IC50 against SMMC-7721; cited from earlier work
SMMC-7721 cells [4] = assay: MTT cytotoxicity assay, SMMC-7721; type: cell-based, human; details: 48 h exposure
Protocol: as §1

LO2 cells = assay: MTT cytotoxicity assay, normal hepatocyte LO2; type: cell-based; details: Homo sapiens, L02, 48 h exposure, normal hepatocyte cell line
Protocol: as §1

T2 sequence (P11388 whole entry): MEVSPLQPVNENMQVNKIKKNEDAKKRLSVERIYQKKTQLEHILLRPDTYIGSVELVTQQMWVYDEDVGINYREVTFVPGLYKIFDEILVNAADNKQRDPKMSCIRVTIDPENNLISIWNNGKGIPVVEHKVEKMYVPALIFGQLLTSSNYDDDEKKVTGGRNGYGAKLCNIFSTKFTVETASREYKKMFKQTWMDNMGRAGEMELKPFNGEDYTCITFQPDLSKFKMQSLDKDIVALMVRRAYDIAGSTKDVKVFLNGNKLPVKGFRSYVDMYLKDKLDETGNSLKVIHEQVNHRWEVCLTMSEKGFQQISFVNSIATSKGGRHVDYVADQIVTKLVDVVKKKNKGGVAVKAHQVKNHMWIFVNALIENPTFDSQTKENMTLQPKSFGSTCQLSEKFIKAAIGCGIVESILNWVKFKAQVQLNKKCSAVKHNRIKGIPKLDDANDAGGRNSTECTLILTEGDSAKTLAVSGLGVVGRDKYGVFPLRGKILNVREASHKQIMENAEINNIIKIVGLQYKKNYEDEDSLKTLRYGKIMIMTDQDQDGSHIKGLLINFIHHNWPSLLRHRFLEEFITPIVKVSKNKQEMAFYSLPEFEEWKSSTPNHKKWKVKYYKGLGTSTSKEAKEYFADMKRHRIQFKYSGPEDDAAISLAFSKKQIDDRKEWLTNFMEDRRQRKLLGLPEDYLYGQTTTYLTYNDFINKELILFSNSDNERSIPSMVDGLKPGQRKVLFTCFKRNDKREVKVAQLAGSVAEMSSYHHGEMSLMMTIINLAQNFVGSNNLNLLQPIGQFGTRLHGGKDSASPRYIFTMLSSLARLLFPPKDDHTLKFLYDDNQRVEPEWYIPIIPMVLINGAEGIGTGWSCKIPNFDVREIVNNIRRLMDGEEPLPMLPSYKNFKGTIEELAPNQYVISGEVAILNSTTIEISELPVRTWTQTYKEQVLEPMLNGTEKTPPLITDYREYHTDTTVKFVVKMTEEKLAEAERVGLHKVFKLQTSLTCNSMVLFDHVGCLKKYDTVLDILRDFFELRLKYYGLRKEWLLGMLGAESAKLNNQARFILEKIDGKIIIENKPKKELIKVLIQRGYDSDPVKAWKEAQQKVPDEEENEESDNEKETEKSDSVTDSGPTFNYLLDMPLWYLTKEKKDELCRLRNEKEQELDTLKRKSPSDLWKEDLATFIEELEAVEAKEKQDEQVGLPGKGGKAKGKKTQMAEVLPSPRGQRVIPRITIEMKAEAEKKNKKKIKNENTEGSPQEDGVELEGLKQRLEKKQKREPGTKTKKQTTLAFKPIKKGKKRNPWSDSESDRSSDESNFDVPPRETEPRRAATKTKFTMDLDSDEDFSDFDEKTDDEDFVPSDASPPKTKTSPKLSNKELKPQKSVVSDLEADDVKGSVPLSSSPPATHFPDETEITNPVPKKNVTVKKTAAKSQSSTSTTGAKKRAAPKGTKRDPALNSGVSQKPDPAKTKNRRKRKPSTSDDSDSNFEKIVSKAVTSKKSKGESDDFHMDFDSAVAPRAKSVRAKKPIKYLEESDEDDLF

Structure (SMILES)	inhibition at 20 µM (DNA topoisomerase I) [%]	inhibition at 100 µM (DNA topoisomerase I) [%]	inhibitory activity to Topo I (DNA topoisomerase I; preliminary screening)	IC50 (HepG2 cells [1]) [µM]	IC50 (HepG2 cells [2]; Homo sapiens, HepG2, 48 h) [µM]	inhibition at 20 µM (Human Topoisomerase IIα) [%]	inhibition at 100 µM (Human Topoisomerase IIα) [%]	inhibitory activity to Topo IIα (Human Topoisomerase IIα; preliminary screening)	IC50 (SMMC-7721 cells [3]) [µM]	IC50 (SMMC-7721 cells [4]; Homo sapiens, SMMC-7721, 48 h) [µM]	IC50 (LO2 cells) [µM]	melting point [°C]	IC50 (HepG2 cells [2]) [µM]	IC50 (SMMC-7721 cells [4]) [µM]
Cc1ccc2[nH]c3c(c2c1)C[C@@]1(C)C(CC[C@]2(C)C1CC=C1C4[C@@H](C)[C@H](C)CC[C@]4(C(=O)NCCCN(C)C)CC[C@]12C)C3(C)C (stereo partly shown) [5b, N-(3-(Dimethylamino)propyl)-5′-methyl-1′H-ursa-2,12-dieno[3,2-b]indol-28-carboxamide]	9	34.2	considerable inhibitory activity	~1	1.26 ± 0.17	38.2	72.5	considerable inhibitory activity	~1	1.08 ± 0.22	20.7 ± 1.73	–	–	–
Cc1ccc2[nH]c3c(c2c1)C[C@@]1(C)C(CC[C@]2(C)C1CC=C1C4[C@@H](C)[C@H](C)CC[C@]4(C(=O)NCCCN4CCCCC4)CC[C@]12C)C3(C)C (stereo partly shown) [5d, N-(3-(Piperidin-1-yl)propyl)-5′-methyl-1′H-ursa-2,12-dieno[3,2-b]indol-28-carboxamide]	–	0	–	–	1.04 ± 0.09	41.3	81.1	–	–	0.89 ± 0.11	12.8 ± 0.83	183 to 185	–	–
Cc1ccc2[nH]c3c(c2c1)C[C@@]1(C)C(CC[C@]2(C)C1CC=C1C4[C@@H](C)[C@H](C)CC[C@]4(C(=O)NCCCN4CCOCC4)CC[C@]12C)C3(C)C (stereo partly shown) [5e, N-(3-Morpholinopropyl)-5′-methyl-1′H-ursa-2,12-dieno[3,2-b]indol-28-carboxamide]	–	0	–	–	5.27 ± 0.67	31.5	70.8	–	–	3.75 ± 0.37	28.6 ± 0.76	108 to 110	–	–
Cc1ccc2[nH]c3c(c2c1)C[C@@]1(C)C(CC[C@]2(C)C1CC=C1C4[C@@H](C)[C@H](C)CC[C@]4(C(=O)NCCCCN)CC[C@]12C)C3(C)C (stereo partly shown) [6a, N-(4-Aminobutyl)-5′-methyl-1′H-ursa-2,12-dieno[3,2-b]indol-28-carboxamide]	13.7	28.8	–	–	~1	27	71.1	–	–	~1	15.2 ± 1.15	256 to 258	1.32 ± 0.21	1.21 ± 0.19
Cc1ccc2[nH]c3c(c2c1)C[C@@]1(C)C(CC[C@]2(C)C1CC=C1C4[C@@H](C)[C@H](C)CC[C@]4(C(=O)NCCCCN(C)C)CC[C@]12C)C3(C)C (stereo partly shown) [6b, N-(4-(Dimethylamino)butyl)-5′-methyl-1′H-ursa-2,12-dieno[3,2-b]indol-28-carboxamide]	0	15.1	–	–	2.91 ± 0.18	31.7	69	–	–	2.43 ± 0.21	18.2 ± 1.64	163 to 165	–	–
CCN(CC)CCCCNC(=O)[C@]12CC[C@@H](C)[C@H](C)C1C1=CCC3[C@@]4(C)Cc5c([nH]c6ccc(C)cc56)C(C)(C)C4CC[C@@]3(C)[C@]1(C)CC2 (stereo partly shown) [6c, N-(4-(Diethylamino)butyl)-5′-methyl-1′H-ursa-2,12-dieno[3,2-b]indol-28-carboxamide]	0	16.8	–	–	3.45 ± 0.25	35.2	70	–	–	3.62 ± 0.23	28.4 ± 2.98	132 to 134	–	–
Cc1ccc2[nH]c3c(c2c1)C[C@@]1(C)C(CC[C@]2(C)C1CC=C1C4[C@@H](C)[C@H](C)CC[C@]4(C(=O)NCCCCN4CCCCC4)CC[C@]12C)C3(C)C (stereo partly shown) [6d, N-(4-(Piperidin-1-yl)butyl)-5′-methyl-1′H-ursa-2,12-dieno[3,2-b]indol-28-carboxamide]	–	0	–	–	2.31 ± 0.21	32.8	72.5	–	–	2.72 ± 0.31	18.7 ± 1.36	121 to 123	–	–
Cc1ccc2[nH]c3c(c2c1)C[C@@]1(C)C(CC[C@]2(C)C1CC=C1C4[C@@H](C)[C@H](C)CC[C@]4(C(=O)NCCNC(=O)[C@]45CC[C@@H](C)[C@H](C)C4C4=CCC6[C@@]7(C)Cc8c([nH]c9ccc(C)cc89)C(C)(C)C7CC[C@@]6(C)[C@]4(C)CC5)CC[C@]12C)C3(C)C (stereo partly shown) [7a, N,N′-(ethane-1,2-diyl)-bis(5′-methyl-1′H-ursa-2,12-dieno[3,2-b]indol-28-carboxamide)]	–	0	–	–	> 50	9.7	23.8	–	–	> 50	> 50	301 to 303	–	–
Cc1ccc2[nH]c3c(c2c1)C[C@@]1(C)C(CC[C@]2(C)C1CC=C1C4[C@@H](C)[C@H](C)CC[C@]4(C(=O)NCCCNC(=O)[C@]45CC[C@@H](C)[C@H](C)C4C4=CCC6[C@@]7(C)Cc8c([nH]c9ccc(C)cc89)C(C)(C)C7CC[C@@]6(C)[C@]4(C)CC5)CC[C@]12C)C3(C)C (stereo partly shown) [7b, N,N′-(propane-1,3-diyl)-bis(5′-methyl-1′H-ursa-2,12-dieno[3,2-b]indol-28-carboxamide)]	–	2	–	–	> 50	9.8	17.8	–	–	> 50	> 50	276 to 278	–	–
Cc1ccc2[nH]c3c(c2c1)C[C@@]1(C)C(CC[C@]2(C)C1CC=C1C4[C@@H](C)[C@H](C)CC[C@]4(C(=O)NCCCCNC(=O)[C@]45CC[C@@H](C)[C@H](C)C4C4=CCC6[C@@]7(C)Cc8c([nH]c9ccc(C)cc89)C(C)(C)C7CC[C@@]6(C)[C@]4(C)CC5)CC[C@]12C)C3(C)C (stereo partly shown) [7c, N,N′-(butane-1,4-diyl)-bis(5′-methyl-1′H-ursa-2,12-dieno[3,2-b]indol-28-carboxamide)]	–	0	–	–	> 50	8.1	16.9	–	–	> 50	> 50	255 to 258	–	–
